US20230149373A1, “USE OF BROMODOMAIN INHIBITORS FOR TREATMENT OF HUNTINGTON'S DISEASE” (RUMI SCIENTIFIC HOLDINGS, INC., priority 2020, published 2023)
Entries after “also recorded” stand apart in the source; their conditions may differ.

Experiments:
Type in all cases: cell-based, human
[1] = tested on: HD-56CAG neuruloids; experiment: HD neuruloid phenotype reversal (AI-scored phenotypic rescue); settings: for rescue of HD neuruloids to the WT configuration: FIG. 10; for rescue of HD neuruloids to the WT configuration / rescue of HD neuruloid phenotype, primary screen images: qualitative; for hit call in panel of BRD inhibitors (rescue efficacy above and toxicity below threshold): single concentration of 10 μM, 96 well plates, same hit criteria as primary screen; for rescue of HD neuruloid phenotype, primary screen images: 10 μM, staining DAPI, PAX6, phalloidin
Procedure: Micropatterned cell culture on chips and neuruloid induction: Micropatterned glass coverslips (CYTOOCHIPS Arena A, Arena 500A, Arena EMB A) were first coated with 10 μg ml^−1 recombinant Laminin-521 (BioLamina, LN521-03) diluted in PBS+/+(Gibco) for 3 h at 37° C. Micropatterns were placed face-up onto a Parafilm that was seated in a 10 cm dish, then 800 μl of laminin solution was added to the micropattern. After 3 h at 37° C., the coated micropattern was transferred to a 35 mm dish with 5 ml of PBS+/+. Laminin was removed with six serial dilutions in PBS+/+(dilution 1:4) before two complete washes in PBS+/+. Then the coated micropattern was kept in PBS+/+ at 37° C. Cells were seeded as follows: cells growing in MEF-CM on culture dish were washed once with PBS−/− (Gibco), then treated with accutase (Stem Cell Technologies) for 5 min. Cells were then triturated with a pipette to ensure single cell suspension and accutase was diluted out with 4× HUESM medium supplemented with 20 ng ml^−1 bFGF and ROCK inhibitor, Y27632 (10 μM; Abcam ab120129). Cells were further diluted with the same medium and 5×10^5 (or as indicated) cells in 3.0 ml of medium were placed over the micropattern in a 35-mm tissue culture dish, then incubated at 37° C. After 3 h, the micropattern in a dish was washed once with PBS+/+. For SB+LDN condition: PBS+/+ was replaced with 3 N medium73 with 10 μM SB431542 (Stemgent 04-0010-10) and 0.2 μM LDN 193189 (Stemgent 04-0019). At days 3 and 5, the medium was replaced with the same fresh medium and incubated at 37° C. until day 7. For SB+BM P4 condition (neuruloid), PBS was replaced with HUESM with 10 μM SB431542 and 0.2 μM LDN 193189. At day 3, the medium was replaced with HUESM with 10 μM SB431542 and BM P4 (50 ng ml^−1 or indicated each experiment). At day 5, the medium was replaced with the same fresh medium then incubated until day 7.
(§1) Micropatterned cell culture on 96 well plates and imaging: The micropatterned cell culture on chips and neuruloid induction protocol was used with micropatterned 96 well plates (CYTOOPLATES Arena A, Arena 700). The neuruloid induction was modified so that all steps requiring media changes, cell dispensing as well as washes and incubations for immunofluorescence were performed with a EL406 washer/dispense robot. For cell seeding, a volume of 200 μl cell suspension at a density of 0.18M cells per ml was used. Plate imaging was performed with an InCell Analyzer 2000 high-content imager through a 4× lens.
(§2) A number of libraries consisting of 2080 compounds were screened in 96 well plates with micropatterned glass bottoms. In these plates, each well has around 27 individual neuruloids. During the screen, two plates of WT controls and two plates of HD untreated controls were reserved in order to have enough control data for training the deep neural network for later analysis. Compounds were applied to the test plates at day 0 of differentiation and re-applied at day 3 and day 5 during media change steps. Each compound was applied in a unique well, at a unique concentration of 10 uM. At day 7, plates were fixed and stained for DAPI, PAX6 and Phalloidin. After staining, plates were imaged and individual neuruloids in every well were segmented and labeled before being fed to the specific deep neural network.
Image analysis: image tiles acquired from micropatterned or plate culture experiments were stitched and background-corrected. A foreground mask was created to detect colonies by thresholding the DAPI channel and calculating alpha shapes in respect to colony size. Each detected colony was extracted from the corrected and stitched image.
Deep learning for quantification of phenotypic rescue: Multichannel WT and disease organoid images are split into training (70%) and validation (30%) images. A neural network (NN) is then trained on the training data set. The NN is coded using a machine-learning framework such as Pytorch. […]

[2] = tested on: expanded HTT and total HTT; experiment: HTT levels in HD neuruloid lysates, ELISA-based meso scale discovery (MSD) electrochemiluminescence assay; settings: for HTT levels reduction ability (expanded HTT and total HTT): 1 μM and 5 μM, versus DMSO control
Procedure: We therefore repeated our protocol for the formation of HD neuruloids in two genetic backgrounds: 56CAG and 72CAG and treated with the 5 BRD inhibitors disclosed in FIG. 9 at two concentrations: 1 uM and 5 uM. At the end of the differentiation protocol, neuruloids lysates were frozen and later analyzed for their HTT contents. Both expanded HTT levels and total HTT levels (expanded+regular) were quantified through ELISA-based meso scale discovery (MSD) electrochemiluminescence assay.
HD neuruloids were created in two genetic backgrounds: 56CAG and 72CAG; and treated with the 5 BRD inhibitors disclosed in FIG. 10 at two concentrations: 1 μM and 5 μM. At the end of the differentiation protocol, neuruloid lysates were analyzed for their HTT contents. Both expanded HTT levels and total HTT levels (expanded+regular) were quantified through ELISA-based meso scale discovery (MSD) electrochemiluminescence assay.

[3] = tested on: HD-56CAG gastruloids; experiment: HD gastruloid SOX17+ area rescue; settings: 1 μM; 48 hrs CHIR and Activin
Procedure: BRD inhibitors were tested to determine whether they were able to rescue another HD phenotype in human gastruloids. When human embryonic stem cell colonies are stimulated for 48 hrs with CHIR and Activin a primitive-streak like population, SOX17+, is induced at the periphery (see FIG. 12a). Moreover, in HD gastruloids made from the HD-56CAG cells, the SOX17+ domain at the periphery is greatly expanded. This effect is even more pronounced when using a null HTT−/− cell line, which supports the findings that the HD mutation is in fact a loss of function mutation in a developmental context, as it phenocopies the absence of the protein.
Gastruloid induction: Using the protocol for coating micropatterned chips. after the final wash in PBS+/+, 8×10^5 cells were seeded on each coverslip in a defined volume of MEF-CM supplemented with 20 ng/ml bFGF (R&D Systems), 10 μM ROCK inhibitor (Y-27632, Abcam), 1× Penicillin-streptomycin (Thermo Fisher Scientific), 100 μg/ml Normocin (Invivogen) and left unperturbed for 10 minutes to ensure homogenous distribution across the patterns. ROCK inhibitor was removed from the medium 3 hours after seeding and cells were induced the following day with 50 ng/ml BM P4 (R&D Systems), 2 μM IWP2 (Stemgent), 6 μM CHIR99021 (EMD Millipore), 100 ng/ml ACTIVIN (R&D Systems) and small molecule treatments. Samples were fixed 48 hours later and analyzed by immunofluorescence.

[4] = tested on: HD-56CAG neuruloids; experiment: HD neuruloid phenotype reversal (AI-scored phenotypic rescue); settings: for potency (EC50) in rescuing HD neuruloids: dose-dependent test of BRD9 inhibitors, FIG. 9A
[5] = tested on: WT-20CAG and HD-56CAG neuruloids; experiment: Neuruloid toxicity (autoencoder-based toxicity score)
Procedure: as §1, §2
Deep learning for quantification of cytotoxicity: An autoencoder based method was used to asses toxicity. These unsupervised neural networks encode data and compress it in a low dimensional latent representation. The unsupervised nature of this machine learning method has the advantage that the autoencoder learns a representation of the data without any additional information about the data (such as that it is derived from wild type or disease cell lines), and is thus unbiased in estimating the toxicity of compounds. The representation of the data in terms of vectors also has the advantage that differences in the wild type and disease phenotype can be removed from the vector space, since this difference is not relevant in determining toxicity. Toxicity was determined in the following way: First, the difference between wild type and disease is removed from the latent space. Then, the distance from the mean vector of the wild type and disease phenotypes is calculated, and compared to the standard deviation of the wild type and disease phenotypes. This distance is defined as the toxicity.

| potency (EC50) in rescuing HD neuruloids [4] | Structure (SMILES) | rescue of HD neuruloids to the WT configuration [1] | HTT levels reduction ability (expanded HTT and total HTT) ([2]; 56CAG and 72CAG neuruloids) | SOX17+ area at the periphery of HD gastruloids [3] | other results |
| --- | --- | --- | --- | --- | --- |
| sub-micromolar | COc1cc(-c2cn(C)c(=O)c3cnccc23)cc(OC)c1CN(C)C [BI-7273] | rescue HD neuruloids to the WT configuration | no HTT reduction ability | significant reduction of the SOX17+ area | hit call in panel of BRD inhibitors (rescue efficacy above and toxicity below threshold) ([1]; listed as B17273): high enough efficacy while keeping a low toxicity and scores positively and hit |
| sub-micromolar | COc1cc(-c2cn(C)c(=O)c3cnccc23)c(OC)cc1CN(C)C [BI-9564] | rescue HD neuruloids to the WT configuration | no HTT reduction ability | – | hit call in panel of BRD inhibitors (rescue efficacy above and toxicity below threshold) [1]: did not score positively |
| sub-micromolar | CCOC(=O)Nc1cc(-c2ccc(C)c(NS(C)(=O)=O)c2)nn2c(C)nnc12 [Bromosporine] | rescue HD neuruloids to the WT configuration | reduced both expanded HTT and total HTT levels; also recorded: has HTT lowering activity | significant reduction of the SOX17+ area | rescue of HD neuruloid phenotype, primary screen images [1]: reversal of the HD phenotype towards the WT configuration; rescue of HD neuruloid phenotype, primary screen images ([1]; listed as bromosporine): rescues the HD neuruloids phenotype; phenotypic rescue ([1]; primary screen, 10 uM, HD neuruloids, AI score 0 = disease, 1 = WT, hit >0.95): 0.98; concentrations at which a toxic response started to occur ([5]; WT and HD-56CAG neuruloids): above 1 μM; toxicity in the window of concentration ([5]; between 0.3 μM and 1 μM): low toxicity; toxicity score ([5]; primary screen, 10 uM, HD neuruloids, toxic signature >3): 1.93; reduction of expanded HTT levels ([2]; 1 μM, 56CAG and 72CAG neuruloids): more than 50%; reduction of expanded HTT levels ([2]; 5 μM, all backgrounds (56CAG and 72CAG neuruloids)): more than 75%; rescue of HD phenotype, hit validation in small-scale experiment ([4]; 0.5 μM, staining SOX10, PAX6, N-CAD, qualitative): rescue of the disorganization induced by the HD gene; also recorded: rescued the HD phenotype; EC50 ([4]; Homo sapiens, dose response, 10 concentrations in triplicates, read-out: EC50 rescuing the neuruloids HD-56CAG phenotype): 120 nM; concentration at which fully effective ([4]; dose response, HD neuruloids): around 300 nM |
| sub-micromolar | CCn1cc(-c2cccc(C(F)(F)F)c2)c2sc(C(=N)NC3CCS(=O)(=O)CC3)cc2c1=O [I-BRD9] | rescue HD neuruloids to the WT configuration | – | – | – |
| sub-micromolar | COc1cc(-c2cn(C)c(=O)c3cnccc23)cc(OC)c1CN(C)CC(=O)NCCOCCOCCNc1cccc2c1C(=O)N(C1CCC(=O)NC1=O)C2=O (stereo not shown) [dBRD9] | rescue HD neuruloids to the WT configuration | no HTT reduction ability | significant reduction of the SOX17+ area | toxic profile relative to Bromosporine ([5]; dose-dependent test, FIG. 9B): lower than Bromosporine |
